What was measured:
[1] = Vital parameters, haematology and serum clinical chemistry follow up in cynomolgus monkeys (non-GLP studies); type: in vivo, cynomolgus monkeys (M. fascicularis)
Protocol: Classical blood parameters follow-up (red blood cell, platelets total and differential white blood cells counts, haemoglobin, mean corpuscular haemoglobin, mean corpuscular haemoglobin concentration) were performed at the sites of monkey handling, just before and after each administration and twice weekly.
On all animals in group 2, 48 or 72 hours after each injection, 16 blood chemistry parameters were measured (sodium, potassium, chloride, calcium, inorganic phosphorus, glucose, urea, total cholesterol, total bilirubin, total protein, albumin, globulin, creatinin, alkaline phosphatase, aspartate aminotransferase and […] aminotransferase).
The animals were observed daily and during and after each injection for any change in vital and clinical parameters (general behaviour, skin, hair, respiratory system, central nervous system). Animals were regularly weighed, every 3 days (group 1) or weekly (group 2). Body temperature (on vigil animals of group 2) was measured before and at the end of each BrHPP/IL2 (or IL2 alone) infusion and once daily during the 5 days following administration. Heart rate and blood pressure were recorded for all animals in group 2, before and at the end of each administration.

[2] = system: 786-0 cells lines; assay: Nod-SCID/tumor model, human PBMC stimulated in vivo with BrHPP; set-up: species or system Nod-SCID mice
Protocol: Preliminary studies to set up the Nod-SCID/tumor and to stimulate human MNC with BrHPP in the Nod-SCID were carried out as follows: • The following renal tumor cells lines purchased from the ATCC (786-0, Kaci1, G401 and G402) were used for the establishment of the model. 786-0 and Kaci-1 cells lines were renal clear cell carcinoma (RCC), G401 rhabdoid and G402 leimyeloblastoma.
8-12 weeks Nod-SCID mice were used as recipient of the cells lines.
Each mouse received, at the left flank's upper part, 2-5×10^6 cells by subcutaneous injection at day D0. The appearance and the growing of the tumors evolution were checked weekly.
The tumors appearance and development depend on the cell line and on the number of engrafted cells. For example, after the engraftment of 2×10^6 cells, 3 to 4 weeks were needed for the 786-O and Kac1-1, while 2 weeks were needed for the G401 and 402. • At day 0, mice were injected IP 50*10^6 PBMC (collected from healthy donor, etablissement français du sang), then stimulated (IP) 40 mg/kg BrHPP mixed with 1000 IU of IL2. At D5 and each every three days, mice were treated with 500 UI of IL2. Human γδ T cells were developed in the peritoneal cavity of Nod-SCID/human (hu) BrHPP treated mice.
Taking advantage of the tumoral development in the Nod-SCID mice and the in vivo stimulation of the human γδ T cells, the anti-tumoral effect of the γδ T cells was studied in vivo. The tumoral model was established by engrafting 2×10^6 of 786-0 cells lines, three weeks later, when the volume of the solid tumor reached more than >30 mm3 (calculated with the formula A^2×B/2 where A and B represent respectively the length and breadth of the tumor). Mice, randomized, received IP PBMC and treated for the stimulation with BrHPP. Several groups were constituted:
A—Negative control group: Mice in the group received only tumoral cell line
B—PBMC group: Mice were injected IP with 50×10^6 PBMC
C—Study group: Mice after receiving the 50×10^6 PBMC were treated with BrHPP and
For each group, parameters were observed as follows: • Weekly check of the tumor size and volume • Weekly phenotype of human T cells in the peritoneal cavity and blood collected cells for the percentage of human γδ T cells versus ab human T cells. • Serological TNF and INF check • At sacrifice: • 1—phenotype study of the homing of human leukocytes cells and their phenotype (IP, liver, lung, spleen, bone morrow, blood, thymus and tumor). • 2—Immunohistochemistry (IHC) study in the tumor of the recipient mice.

[3] = system: TNFα; assay: Serum TNFα by ELISA after BrHPP injection in cynomolgus monkeys; type: in vivo, cynomolgus monkeys (M. fascicularis)
Protocol: Serum cytokines (TNFα and INFg) were detected and quantified with the BIOSOURCE Cytoscreen™ ELISA monkey TNFa and Cytoscreen™ ELISA monkey INFg respectively (purchased from CliniSciences, Montrouge, France) according to the manufacturer's instructions.
Samples of sera were collected from group 2 animals during the first dose range assay (0 to 80 mg/kg) just before injection then 1 and 4 hours post injection, and assayed by ELISA specific for TNFa and IFNg.
(§1) The objective of this GLP study was to explore further the pharmaco-dynamic properties of Phosphostim (BrHPP, 200 mg; GMP batch) alone and in combination with IL-2 following several i.v. administrations to cynomolgus monkeys. In particular, this study was planned to evaluate: • A dose-effect relationship between Phosphostim injection and γδ T cell peripheral amplification; • The pharmaco-dynamic effect of a second, third and up to fifth administration of Phosphostim in male and female animals; • The functionality of in vivo induced γδ T cells, by dosing systemic cytokines after Phosphostim treatment; • The effect of treatment with IL-2 alone and to validate the selected dose of 0.6 million IU/day/animal.
(§2) Phosphostim was administered i.v., as slow infusions (50 ml in 30 minutes), at various dose levels to five groups of two animals (one male+one female). Males received two successive injections of BrHPP (Day 0 and Day 22) before sacrifice and females four injections (Days 0, 22, 52 and 84). Two females, selected upon their level of response to the 4th treatment, received a supplementary injection of BrHPP alone at Day 91, during γδ cell peripheral increase, for systemic cytokine dosages.

[4] = system: Vγ9Vδ2 T cells; assay: Phosphostim (BrHPP) i.v. pharmaco-dynamic GLP study in cynomolgus monkeys; type: in vivo
Protocol: as §1, §2
The administration schedule of the test product can be summarized as follows in Table 1:
The dose levels in Table 1 are can be converted to BrHPP pure (anionic) form equivalent by multiplying each dose by 0.6. Thus, the doses of 0.2, 4, 20, 50, 80, 120 and 160 mg/kg in Table 1 are equivalent respectively to 0.12, 2.4, 12, 30, 48, 72 and 96 mg/kg of anionic form BrHPP. • IL-2 was administered s.c. at the following frequency: from Day 0 to Day 6 and from Day 22 to Day 28 for all animals; from Day 52 to 58 and from Day 84 to Day 90 for all the females. IL-2 was administered as two separate s.c. injections approximately 8 hours apart of 0.3 million IU, corresponding to 0.6 million IU/day/animal.

Substance: 3-(bromomethyl)-3-butanol-1-yl-diphosphate [BrHPP]
- clinical or blood chemical parameters ([1]; BrHPP alone or in association with IL2): No alteration of clinical or blood chemical parameters
- rectal temperature ([1]; any animal treated): not significantly affected
- toxicity as assessed by vital signs or rectal temperature ([1]; five daily injection of 0.2 mg/kg BrHPP alone): did not result in any toxicity
- toxicity, fever ([1]; four daily injections 1, 4, 16, 32 mg/kg BrHPP alone): no toxicity nor fever was observed
- lymphocytes ([1]; highest dose of BrHPP, at peak of Vg9Vd2 in the periphery): a lymphocytosis was observed
- mice in which the tumor was not totally cleared ([2]; PBMC + BrHPP + IL2): 4 of 10
- tumor size ([2]; PBMC/BrHPP (40 mg/kg IP) and IL2 treated group): from day 7 onwards the tumor size shrank
- tumor growth where tumor not totally cleared ([2]; after 12 weeks): tumor growth was stopped and the tumor size stayed stable
- human γδ cells in the tumor ([2]; at sacrifice, 4 weeks): human γδ cells were present only in the BrHPP treated group
- reappearance of tumor ([2]; mice where the tumor was cleared, 12 weeks after the treatment): no reappearance of new tumor was observed
- human γδ T cell presence in the peritoneal cavity ([2]; weekly IP phenotype): human γδ T cell presence only in the BrHPP treated mice
- serum level of TNFa ([3]; 80 mg/kg, 4 hours post BrHPP injection): not further detectable
- TNFα in the sera ([3]; 80 mg/kg, one hour after injection): detectable
- TNFa level ([3]; fifth injection 80 mg/kg without IL2, 4 hours post injection): undetectable at 4 hours post injection
- TNFa in the sera ([3]; fifth injection 80 mg/kg without IL2 at peak after fourth injection): detectable
- γδ cell number increase ([4]; 20 mg/kg (12 mg/kg anionic form) + IL-2): 20 fold
- increase in circulating γδ cell count ([4]; at around 120 mg/kg (EC50) + IL-2): 100 fold
- circulating Vγ9Vδ2 T cells vs before treatment ([4]; highest tested dose + IL-2): 200 fold
- share of circulating Vγ9Vδ2 T cells in peripheral lymphocytes ([4]; highest tested dose + IL-2): represented the majority of peripheral lymphocytes
- estimated EC50 value in vivo, anionic form BrHPP ([4]; i.v. + IL-2): ~72 mg/kg
- estimated EC50 value of BrHPP in vivo ([4]; i.v. + IL-2): around 120 mg/kg
- first slightly efficient tested dose ([4]; i.v. + IL-2, Day 7): 4 mg/kg
- first slightly efficient tested dose, anionic form BrHPP ([4]; i.v. + IL-2, Day 7): 2.4 mg/kg
